{"source": "patent US20110092624A1", "about": "“INK COMPOSITION AND METHOD FOR PRODUCING THE SAME” (SEIKO EPSON CORPORATION, priority 2009, published 2011)", "assay": "Solubility of acidic dye and by-product in solvents, rated by filter cake weight", "assay_type": "physicochemical", "settings": "10 g solvent, filtered 0.2 μm, dried filter cake weighed", "protocol": "The acidic dye was C. I. Acid Blue 290. The acidic dye was added to 10 g of each organic solvent and the organic solvent was agitated, whereby the acidic dye was dissolved in the organic solvent. A solution thereby obtained was filtered through an Omnipore membrane filter, having a pore size of 0.2 μm, available from Nihon Millipore K.K. A filter cake thereby obtained was dried and then weighed. A by-product represented by the following formula was measured for solubility in the same manner as that used to measure the acidic dye:\nThe solubility of the acidic dye and by-product in each organic solvent was evaluated on the basis of the weight of the filter cakes. Evaluation standards were as described below.\nA rating of 5: 0 to less than 0.2 g of a filter cake\nA rating of 4: 0.2 to less than 0.4 g of a filter cake\nA rating of 3: 0.4 to less than 0.6 g of a filter cake\nA rating of 2: 0.6 to less than 0.8 g of a filter cake\nA rating of 1: 0.8 g or more of a filter cake", "data": [{"substance": "C. I. Acid Blue 290 [Acidic dye]", "values": [{"measurement": "Solubility rating", "setting": "Acetone", "result": "1 (A rating of 1: 0.8 g or more of a filter cake)"}, {"measurement": "Solubility rating", "setting": "Acrylonitrile", "result": "3 (A rating of 3: 0.4 to less than 0.6 g of a filter cake)"}, {"measurement": "Solubility rating", "setting": "Chloroform", "result": "4 (A rating of 4: 0.2 to less than 0.4 g of a filter cake)"}, {"measurement": "Solubility rating", "setting": "Ethanol", "result": "3 (A rating of 3: 0.4 to less than 0.6 g of a filter cake)"}, {"measurement": "Solubility rating", "setting": "Hexane", "result": "2 (A rating of 2: 0.6 to less than 0.8 g of a filter cake)"}, {"measurement": "Solubility rating", "setting": "Methanol", "result": "5 (A rating of 5: 0 to less than 0.2 g of a filter cake)"}, {"measurement": "Solubility rating", "setting": "Tetrahydrofuran", "result": "4 (A rating of 4: 0.2 to less than 0.4 g of a filter cake)"}, {"measurement": "Solubility rating", "setting": "Water", "result": "1 (A rating of 1: 0.8 g or more of a filter cake)"}]}]}
